{"source": "patent US9770438B2", "about": "“Clonidine formulation in a polyorthoester carrier” (Medtronic, Inc., priority 2008, dated 2017)", "key": {"[1]": {"system": "Rat Chronic Constriction Injury Model (Bennett Model) of neuropathic pain", "conditions": "subcutaneously 0.02 mg/kg/day; compared to unloaded polyorthoester depot (POE Control); days 8-64; FIG. 4", "source_text": "(§1) A 2-month chronic constriction injury (CCI) model of neuropathic pain was used to evaluate a formulation of clonidine encapsulated in a POE polymer, a POE control polymer and clonidine given subcutaneously (SC).\n(§2) The inventors evaluated the efficacy of a five month Clonidine/Polyorthoester Drug Depot in the Rat Chronic Constriction Injury Model. The animal model was the Bennett Model (Wistar rat). The purpose: to determine whether a five month polyorthoester clonidine-eluting depot can improve pain associated behavioral responses in a rat model of neuropathic pain.\n(§3) Experimental Design: Four loose chromic gut ligatures, 1 mm apart, were tied around the common sciatic nerve at mid-thigh. Each animal received treatment of test or a controlled article according to the dosing described in Table 2.\n(§4) The inventors have conducted the present study for a period of 64 days and have employed the following two tests: (1) the Hargreaves test; and (2) the von Frey test. The Hargreaves Tests of Thermal Hyperalgesia were conducted on days 7, 14, 21, 28, 35, 42, 49, 56 and 63. The von Frey monofilament test of mechanical allodynia (performed the day following thermal testing) were conducted on days 8, 15, 22, 29, 36, 43, 50, 57 and 64."}, "[2]": {"system": "Rat Chronic Constriction Injury Model (Bennett Model) of neuropathic pain", "conditions": "subcutaneously 0.02 mg/kg/day; compared to unloaded polyorthoester depot (POE Control); days 7-63; FIG. 3", "source_text": "as §1, §2, §3, §4"}}, "data": [{"compound": "Clc1cccc(Cl)c1N=C1NCCN1", "note": "[clonidine, 2,6-dichloro-N-2-imidazolidinyldenebenzenamine]", "values": [{"measurement": "pain behavioral response (percentage of baseline) for mechanical allodynia", "setting": "[1]", "value": "reduced the behavioral response"}, {"measurement": "pain behavioral response (percentage of baseline) for thermal hyperalgesia", "setting": "[2]", "value": "consistently reduced the behavioral response"}]}]}
